Measurements: patent US11466054B2, “Inhibitors of metastasis” (BIOMARCK PHARMACEUTICALS LTD., priority 2013, dated 2022)
Where no end group is shown, it is not given here.

Key:
CL1-5 cells = assay: Transwell migration assay, CL1-5 cells pretreated with peptide; type: cell-based, human; settings: 12 hours; for cell number: control approximately 105; for migration index: control=1.0;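 on migration index: index equals control cell count divided by treated cell count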
Experimental: CL1-5 cells, an aggressively metastatic cell line derived from a human adenocarcinoma, were cultured in RPMI 1640 media with 10% FBS, 37° C. at 95% […]/5% CO2 until ready for use. Transwell plates (24-well, 8-um pore size; Costar, Cambridge, Mass., USA) were used to conduct the migration assay. The lower chambers of the Transwell plates were filled with 600 μl of basal media containing 10% FBS. The cells (1×10^5) were pretreated with 50 or 100 μM of the indicated test peptide for 30 min, and then suspended in 100 μl of basal media containing 1% BSA and added to the upper chamber, and the cells then were incubated at 37° C. for 12 hr. The cells on the upper surface of the filters were removed using cotton swabs, and the cells that migrated to the lower surface of the filters were washed, fixed, and stained with hematoxylin and counted under the microscope. The percent change in migration was determined by counting the number of cells that migrated to the lower surface of the filters. At least 3 separate microscopic fields were counted per membrane (n=4).
Primary CL1-5 cells originated from human adenocarcinoma lung cancer Transwell plates with 24-wells, 8-μ pore size (Costar, Cambridge, Mass., USA) were used to conduct the migration assay. The lower chambers of the transwell plates were filled with 600 μL of basal media containing 10% FBS. The cells (1-2×10^5) were suspended in 100 μL of basal media containing 1% BSA. The test peptide at desired concentration was added to the upper chamber directly or after preincubation with cancer cells. The plates were then incubated at 37° C. for 12 hours. The cells on the upper surface of the filters were removed using cotton swabs. The cells that migrated to the lower surface of the filters were washed, fixed, and stained with hematoxylin and counted under the microscope. At least five separate microscopic fields are counted per membrane (n=3). The percent change in migration was determined by counting the number of cells that migrated to the lower surface of the filters.
The count means the actual number of cells which migrated to the lower chamber and counted by a light microscope at 40× magnification, presented as the mean number of cells in 10 randomly chosen fields for each treatment.
The “index” was calculated by dividing the number of cells that migrated in the presence of peptides by the number of cells that migrated randomly (control group). […]. This calculation can reflect the extent that the migration of cells was blocked by 30 minute pretreatment with MANS-related peptides.

A549 = assay: Transwell migration assay, A549 cells; type: cell-based, human; settings: 12 hr
Experimental: The human adenocarcinoma-derived alveolar epithelial cell line A549 (an invasive cell line) was obtained from the American Type Culture Collection (ATCC) and was cultured in RPMI-1640 supplemented with 10% fetal bovine serum and 100 U/ml penicillin/streptomycin, in 75 cm^2 tissue culture flasks. The cells reached confluence by the third day of culture at 37° C. in an atmosphere of 95% air and 5% CO2 and were maintained by serial passage.
The test peptides (MANS, RNS, BIO-11006, BIO-11000, BIO-11002, BIO-91200, and BIO-10901) were dissolved in PBS at a pH of 7.0; slow vortex mixing for about two hours aided solubility.
Transwell plates (24-well, […]; Costar, Cambridge, Mass., USA) were used to conduct the migration assay. The lower chambers of the transwell plates were filled with 600 μl of basal medium containing 10% FBS. The cells (1×10^5) were suspended in 100 μl of basal medium containing 1% BSA and added to the upper chamber, and the plates incubated at 37° C. with 5% CO2 for 12 hr in PBS (control), or the indicated test peptides at 10, 25 or 50 μM. The cells on the upper surface of the filters were removed using cotton swabs. The cells that migrated to the lower surface of the filters were washed, fixed, and stained with hematoxylin and counted under the microscope. The percent change in migration is determined by counting the number of cells that migrated to the lower surface of the filters. At least four separate microscopic fields are counted per membrane, with a total of three replicate experiments at each concentration. The statistics software “Prizm” was used for data analysis.

[1] = system: Human adenocarcinoma cells (PC-9); assay: Orthotopic lung cancer implantation model in SCID mice, aerosol from day 4 or day 15 (Example 5); type: in vivo; settings: for total number of tumor nodules found in all tissues: FIG. 14
Experimental: In this study, inhibition of lung cancer metastasis by BIO-11006 was investigated in an orthotopic lung cancer implantation model in SCID mice. Human adenocarcinoma cells (PC-9) (1-2×10^5) were suspended in 40 μL of PBS containing 0.5 mg/mL of Matrigel™ (BD Bioscience) and injected into the left lung of SCID mice (n=3) using a 29 gauge needle. BIO-11006 was administered starting either 4 days or 15 days post cancer cell inoculation by aerosol using 100 μM solution in PBS by Nebulizer Delivery System (Aeroneb Lab) over 30 min once daily for 25 days post cancer cell inoculation. At end of the experiment, the mice were sacrificed and lungs, heart, and diaphragm tissues collected and number of tumor nodules in each tissue measured. The results of this experiment are presented graphically in FIGS. 13 and 14. […] When the treatment was initiated at 15 days post inoculation of cancer cells, the inhibition of tumor metastasis was about 50% in the lungs, heart, and diaphragm. FIG. 14 depicts the total number of tumor nodules found in all tissues when peptide treatment was started at 15 days post cancer cell inoculation or 4 days post cancer cell inoculation.

PC-9 cells = assay: Orthotopic lung injection xenograph model, PC-9 cells in nude mice; type: in vivo; settings: 50 nmoles i.p. once every three days, 25 days
Experimental: The metastatic activity of cancer cells in vivo after treatment with MANS peptide or BIO-11006 was assessed in the orthotopic lung injection xenograph model. After pretreatment with either PBS, or PBS+MANS, BIO-11006 (SEQ ID NO: 106), or the control RNS peptide at 100 μM for 4 hours, PC-9 cells were injected into the left lobe of the lung of nude mice. Seven days later, these mice were given systemic treatment with either PBS only (Con), RNS (additional control peptide), MANS or BIO-11006 at 50 nmoles per intraperitoneal injection once every three days. At 25 days (6 injections) post-seeding of these tumor cells, mice were sacrificed and the number of metastasized tumor nodules in the contralateral lung and other organs was counted.

[2] = CL1-5, 50 μmolar pretreatment, FIG. 9
[3] = CL1-5, 100 μmolar pretreatment, FIG. 10
[4] = aerosol 100 μM once daily, started 4 days post inoculation, FIG. 13

N-acetyl-GAQFSKTAAK (Ac-GAQFSKTAAK; listed as Homo sapiens) [BIO-11006]
cell number (CL1-5 cells; [2]): approximately 50 | migration index (CL1-5 cells; [2]): approximately 2 | cell number (CL1-5 cells; [3]): approximately 50 | migration index (CL1-5 cells; [3]): approximately 2.1 | cell numbers in comparison to control, RNS peptide and MANS peptide (A549; A549, 25 μm, FIG. 11): significantly reduced cell numbers | migration index numbers relative to control and to RNS peptide (A549; A549, 50 μm): increased migration index numbers | migrated cell numbers relative to control and to RNS peptide (A549; A549, 50 μm, FIG. 11): decreased migrated cell numbers | inhibition of tumor metastasis in the lungs, heart, and diaphragm ([1]; aerosol 100 μM once daily, initiated 15 days post inoculation, FIG. 13): about 50% | inhibition of tumor metastasis in the left lung, heart, and diaphragm [1, 4]: 60-90% | inhibition of tumor metastasis in the right lung [1, 4]: 100% | total number of tumor nodules found in all tissues ([1]; treatment starting at 4 days post cancer cell inoculation): even further reduced tumor nodules | total number of tumor nodules found in all tissues ([1]; treatment starting at 15 days post cancer cell inoculation): reduced tumor nodules | Metastases (affected mice/total mice) Diaphragm (PC-9 cells): 0/2 | Metastases (affected mice/total mice) Heart (PC-9 cells): 0/2 | Metastases (affected mice/total mice) Intestines (PC-9 cells): 0/2 | Metastases (affected mice/total mice) Spleen (PC-9 cells): 0/2 | No. of Metastatic Lung Tumors Mean ± SE (L't) (PC-9 cells; left lung): 0; 0 | No. of Metastatic Lung Tumors Mean ± SE (R't) (PC-9 cells; right lung): 0; 0 | Tumor Size (mm) Mean ± SE (PC-9 cells; tumor at site of injection, cells pretreated 100 μM 4 hours): 1.61 ± 0.37 mm
